Assay results as given in US11149033B2, “Heteroaryl compound, enantiomer, diastereomer or pharmaceutically acceptable salt thereof, and antiviral composition containing same as active ingredient” (priority 2016, dated 2021).
Like-named read-outs stand apart in the source and are kept apart here.

Tests used:
B/Florida/04/2006 = assay: Antiviral activity (drug efficacy evaluation by concentration) against B/Florida/04/2006; format: cell-based, B type influenza virus
A/Perth/16/2009 (H3N2) = assay: Antiviral activity (drug efficacy evaluation by concentration) against A/Perth/16/2009 (H3N2); format: cell-based, A type influenza virus; settings: Influenza A virus
[1] = tested on: A/California/07/2009 (H1N1); assay: Antiviral activity (drug efficacy evaluation by concentration) against A/California/07/2009 (H1N1); format: cell-based, A type influenza virus; settings: Influenza A virus
[2] = read-out: EC50 B/Florida/04/2006, B/Florida/04/2006
[3] = H3N2, A/Perth/16/2009 (H3N2), read-out: EC50 A/Perth/16/2009 (H3N2)
[4] = CC50 B/Florida/04/2006, cytotoxicity in the B/Florida/04/2006 assay
[5] = H1N1, A/California/07/2009 (H1N1), read-out: EC50 A/California/07/2009 (H1N1)
[6] = CC50, third EC50/CC50 column pair (c7), beside the EC50 of c6

Cc1nn(Cc2nnc(SCc3ccncc3-c3ccccc3)o2)c(C)c1Br [Compound 16, 2-((4-bromo-3,5-dimethyl-1H-pyrazol-1-yl)methyl)-5-(((3-phenylpyridin-4-yl)methyl)thio)-1,3,4-oxadiazole]
EC50 (B/Florida/04/2006; [2]): > 50 µM
EC50 (A/Perth/16/2009 (H3N2); [3]): > 50 µM
CC50 (in vitro; [4]): > 50 µM

CCn1c(Cn2nc(C)c(Br)c2C)nnc1SCc1ccccc1-c1ccccc1 [Compound 24, 3-(([1,1′-biphenyl]-2-ylmethyl)thio)-5-((4-bromo-3,5-dimethyl-1H-pyrazol-1-yl)methyl)-4-ethyl-4H-1,2,4-triazole]
EC50 (B/Florida/04/2006; [2]): > 50 µM
EC50 (A/Perth/16/2009 (H3N2); [3]): > 50 µM
melting point: 137.8 °C
CC50 (in vitro; [4]): > 50 µM

Cc1cccc(C)c1CSc1nnc(Cn2nc(C)c(Br)c2C)o1 [Compound 40, 2-((4-bromo-3,5-dimethyl-1H-pyrazol-1-yl)methyl)-5-((2,6-dimethylbenzyl)thio)-1,3,4-oxadiazole]
EC50 [1, 5]: > 50 µM
melting point: 106.3 °C
CC50 (in vitro; [4]): > 50 µM

c1ccc(-c2nnc(SCc3ccccc3-c3ccccc3)o2)cc1 [Compound 43, 2-(([1,1′-biphenyl]-2-ylmethyl)thio)-5-phenyl-1,3,4-oxadiazole]
EC50 [1, 5]: > 50 µM
EC50 (A/Perth/16/2009 (H3N2); [3]): > 50 µM
CC50 (in vitro; [4]): > 50 µM

O=C(c1cccc(-c2ccccc2)c1)c1nnc(Cc2ccc(Br)cc2)o1 [Compound 69, [1,1′-biphenyl]-3-yl(5-(4-bromobenzyl)-1,3,4-oxadiazol-2-yl)methanone]
EC50 [1, 5]: > 50 µM
EC50 (A/Perth/16/2009 (H3N2); [3]): 49.3 µM
melting point: 166.4 °C
CC50 (in vitro; [4]): > 50 µM

O=C(Nc1ccc(Br)cc1)c1nnc(SCc2ccccc2-c2ccccc2)o1 [Compound 72, 5-(([1,1′-biphenyl]-2-ylmethyl)thio)-N-(4-bromophenyl)-1,3,4-oxadiazole-2-carboxamide]
EC50 [1, 5]: 0.73 µM
EC50 (A/Perth/16/2009 (H3N2); [3]): 23.5 µM
CC50 (in vitro; [4]): 25 µM

CC(C)c1ccccc1/C=C/c1nnc(Cc2ccc(Br)cc2)o1 [Compound 82, (E)-2-(4-bromobenzyl)-5-(2-isopropylstyryl)-1,3,4-oxadiazole]
EC50 (B/Florida/04/2006): > 50 µM
melting point: 91.6 °C
CC50 (in vitro; CC50, beside the EC50 of c2): > 50 µM
CC50 (in vitro; CC50, beside the EC50 of c4): > 50 µM
CC50 (in vitro; [6]): > 50 µM

Fc1cc(Nc2nnc(/C=C/c3ccccc3Br)o2)ccc1Br [Compound 88, (E)-N-(4-bromo-3-fluorophenyl)-5-(2-bromostyryl)-1,3,4-oxadiazol-2-amine]
EC50 ([1]; H1N1, read-out: EC50): > 50 µM
EC50 (A/Perth/16/2009 (H3N2); H3N2, read-out: EC50): > 50 µM
melting point: 225.1 °C
CC50 (in vitro; CC50, beside the EC50 of c2): > 50 µM
CC50 (in vitro; CC50, beside the EC50 of c4): > 50 µM
CC50 (in vitro; [6]): > 50 µM

Cc1ccccc1CCc1nnc(Nc2ccc(Br)cc2)o1 [Compound 89, N-(4-bromophenyl)-5-(2-methylphenethyl)-1,3,4-oxadiazol-2-amine]
EC50 ([1]; H1N1, read-out: EC50): > 50 µM
EC50 (A/Perth/16/2009 (H3N2); H3N2, read-out: EC50): 48.4 µM
melting point: 153.5 °C
CC50 (in vitro; CC50, beside the EC50 of c2): > 50 µM
CC50 (in vitro; CC50, beside the EC50 of c4): > 50 µM
CC50 (in vitro; [6]): > 50 µM

Cc1cc(Nc2nnc(CCc3ccccc3C)o2)ccc1Br [Compound 90, N-(4-bromo-3-methylphenyl)-5-(2-methylphenethyl)-1,3,4-oxadiazol-2-amine]
EC50 ([1]; H1N1, read-out: EC50): > 50 µM
EC50 (A/Perth/16/2009 (H3N2); H3N2, read-out: EC50): > 50 µM
melting point: 122.7 °C
CC50 (in vitro; CC50, beside the EC50 of c2): > 50 µM
CC50 (in vitro; CC50, beside the EC50 of c4): > 50 µM
CC50 (in vitro; [6]): > 50 µM

CC(C)c1ccccc1/C=C/c1nnc(Nc2ccc(Br)cc2)o1 [Compound 117, (E)-N-(4-bromophenyl)-5-(2-isopropylstyryl)-1,3,4-oxadiazol-2-amine]
EC50 ([1]; H1N1, read-out: EC50): 31.4 µM
EC50 (A/Perth/16/2009 (H3N2); H3N2, read-out: EC50): 43.5 µM
melting point: 225.6 °C
CC50 (in vitro; CC50, beside the EC50 of c2): > 50 µM
CC50 (in vitro; CC50, beside the EC50 of c4): > 50 µM

Brc1ccc(Nc2nnc(/C=C/c3ccccc3-c3ccccc3)o2)cc1 [Compound 124, (E)-5-(2-([1,1′-biphenyl]-2-yl)vinyl)-N-(4-bromophenyl)-1,3,4-oxadiazol-2-amine]
EC50 (A/Perth/16/2009 (H3N2); H3N2, read-out: EC50): > 50 µM
melting point: 239.3 °C
CC50 (in vitro; CC50, beside the EC50 of c2): > 50 µM
CC50 (in vitro; CC50, beside the EC50 of c4): > 50 µM
CC50 (in vitro; [6]): > 50 µM

Brc1ccc(Nc2nnc(/C=C/c3ccccc3Oc3ccccc3)o2)cc1 [Compound 125, (E)-N-(4-bromophenyl)-5-(2-phenoxystyryl)-1,3,4-oxadiazol-2-amine]
EC50 ([1]; H1N1, read-out: EC50): 36.7 µM
EC50 (A/Perth/16/2009 (H3N2); H3N2, read-out: EC50): > 50 µM
CC50 (in vitro; CC50, beside the EC50 of c2): > 50 µM
CC50 (in vitro; CC50, beside the EC50 of c4): > 50 µM
CC50 (in vitro; [6]): > 50 µM

Cc1ccccc1CC1(c2nnc(Cc3ccc(Br)cc3)o2)CC1 [Compound 129, 2-(4-bromobenzyl)-5-(1-(2-methylbenzyl)cyclopropyl)-1,3,4-oxadiazole]
EC50 (A/Perth/16/2009 (H3N2); H3N2, read-out: EC50): 6.13 µM
melting point: 72.2 °C
CC50 (in vitro; CC50, beside the EC50 of c2): > 50 µM
CC50 (in vitro; CC50, beside the EC50 of c4): > 50 µM
CC50 (in vitro; [6]): > 50 µM

Cc1cccc(C)c1/C=C/c1nnc(Cc2ccc(Br)cc2)o1 [Compound 134, 2-(4-bromobenzyl)-5-(2,6-dimethylstyryl)-1,3,4-oxadiazole]
EC50 ([1]; H1N1, read-out: EC50): > 50 µM
EC50 (A/Perth/16/2009 (H3N2); H3N2, read-out: EC50): > 50 µM
CC50 (in vitro; CC50, beside the EC50 of c2): > 50 µM
CC50 (in vitro; CC50, beside the EC50 of c4): > 50 µM
CC50 (in vitro; [6]): > 50 µM

CC(=Cc1ccccc1C)c1nnc(Cc2ccc(Br)cc2)o1 [Compound 138, 2-(4-bromobenzyl)-5-(1-(o-tolyl)prop-1-en-2-yl)-1,3,4-oxadiazole]
EC50 ([1]; H1N1, read-out: EC50): 0.161 µM
CC50 (in vitro; CC50, beside the EC50 of c2): > 50 µM
CC50 (in vitro; CC50, beside the EC50 of c4): > 50 µM
CC50 (in vitro; [6]): > 50 µM

Cc1cccc(/C=C/c2nnc(Cc3ccc(Br)cc3)o2)c1C [Compound 150, 2-(4-bromobenzyl)-5-(2,3-dimethylstyryl)-1,3,4-oxadiazole]
EC50 (A/Perth/16/2009 (H3N2); H3N2, read-out: EC50): > 50 µM
melting point: 126.9 °C
CC50 (in vitro; CC50, beside the EC50 of c2): > 50 µM
CC50 (in vitro; CC50, beside the EC50 of c4): > 50 µM
CC50 (in vitro; [6]): > 50 µM

CC(C)c1ccc(/C=C/c2nnc(Cc3ccc(Br)cc3)o2)cc1 [Compound 154, 2-(4-bromobenzyl)-5-(4-isopropylstyryl)-1,3,4-oxadiazole]
EC50 (B/Florida/04/2006): > 50 µM
melting point: 139.8 °C
CC50 (in vitro; CC50, beside the EC50 of c2): > 50 µM
CC50 (in vitro; CC50, beside the EC50 of c4): > 50 µM
CC50 (in vitro; [6]): > 50 µM

Fc1ccc(/C=C/c2nnc(Cc3ccc(F)c(Cl)c3)o2)c(Cl)c1 [Compound 159, (E)-2-(3-chloro-4-fluorobenzyl)-5-(2-chloro-4-fluorostyryl)-1,3,4-oxadiazole]
EC50 ([1]; H1N1, read-out: EC50): > 50 µM
EC50 (A/Perth/16/2009 (H3N2); H3N2, read-out: EC50): 39.7 µM
melting point: 142.2 °C
CC50 (in vitro; CC50, beside the EC50 of c2): > 50 µM
CC50 (in vitro; CC50, beside the EC50 of c4): > 50 µM
CC50 (in vitro; [6]): > 50 µM

Fc1ccc(/C=C/c2nnc(Nc3ccc(Br)c(F)c3)o2)c(Cl)c1 [Compound 160, (E)-N-(4-bromo-3-fluorophenyl)-5-(2-chloro-4-fluorostyryl)-1,3,4-oxadiazol-2-amine]
EC50 ([1]; H1N1, read-out: EC50): > 50 µM
EC50 (A/Perth/16/2009 (H3N2); H3N2, read-out: EC50): > 50 µM
melting point: 195.7 °C
CC50 (in vitro; CC50, beside the EC50 of c2): > 50 µM
CC50 (in vitro; CC50, beside the EC50 of c4): > 50 µM
CC50 (in vitro; [6]): > 50 µM

Fc1ccc(/C=C/c2nnc(Cc3cccc(Cl)c3)o2)c(Cl)c1 [Compound 179, (E)-2-(2-chloro-4-fluorostyryl)-5-(3-chlorobenzyl)-1,3,4-oxadiazole]
EC50 ([1]; H1N1, read-out: EC50): 0.632 µM
melting point: 104 °C
CC50 (in vitro; CC50, beside the EC50 of c2): > 50 µM
CC50 (in vitro; CC50, beside the EC50 of c4): > 50 µM
CC50 (in vitro; [6]): > 50 µM

Cc1ncccc1/C=C/c1nnc(Cc2cccc(Br)c2)o1 [Compound 204, (E)-2-(3-bromobenzyl)-5-(2-(2-methylpyridin-3-yl)vinyl)-1,3,4-oxadiazole]
EC50 (B/Florida/04/2006): 2.5 µM
CC50 (in vitro; CC50, beside the EC50 of c2): > 50 µM
CC50 (in vitro; CC50, beside the EC50 of c4): > 50 µM
CC50 (in vitro; [6]): > 50 µM

Fc1ccc(/C=C/c2nnc(Cc3cc(Cl)ccn3)o2)c(Cl)c1 [Compound 206, (E)-2-(2-chloro-4-fluorostyryl)-5-((4-chloropyridin-2-yl)methyl)-1,3,4-oxadiazole]
EC50 (B/Florida/04/2006): 2.26 µM
EC50 (A/Perth/16/2009 (H3N2); H3N2, read-out: EC50): 1.28 µM
CC50 (in vitro; CC50, beside the EC50 of c2): > 50 µM
CC50 (in vitro; CC50, beside the EC50 of c4): > 50 µM
CC50 (in vitro; [6]): > 50 µM
